{"source": "patent US20120309676A1", "about": "“Lantibiotic Salts” (priority 2010, published 2012)", "key": {"[1]": {"system": "Staphylococcus aureus methicillin resistant ATCC 33591", "experiment": "Mouse bacteraemia model, second experiment, IV dosing", "assay_type": "in vivo", "conditions": "for number of deaths: after 7 days, groups of 6 mice", "protocol": "In a second experiment Groups of 6 male CD-1 (Crl.) derived mice weighing 24±2 g were used. Mice were inoculated intraperitoneally (IP) with an LD90-100 of Staphylococcus aureus methicillin resistant ATCC 33591 (1.35×10^8 CFU/mouse) in 0.5 mL of BHI broth containing 5% mucin. Example 1 was dissolved in 5% dextrose/1.5 mM potassium phosphate, pH 5.0 and doses of 1, 3, 5 and 10 mg/Kg were administered intravenously (IV) to test animals at 1 and 13 hour(s) after bacteria challenge. The dosing volume was 5 mL/Kg. Mortality was recorded once daily for 7 days."}, "[2]": {"system": "Methicillin Resistant Staphylococcus aureus (MRSA, ATCC 33591)", "experiment": "Neutropaenic mouse thigh infection model, further experiment", "assay_type": "in vivo", "conditions": "IV 2 and 14 h after infection, 2.5-50 mg/Kg, FIG. 3", "protocol": "In a further experiment, groups of 6 male ICR mice weighing 24±2 g were used. Test animals were immunosuppressed by 2 intraperitoneal injections of cyclophosphamide, the first at 150 mg/Kg 4 days before infection (day-4) and the second at 100 mg/Kg 1 day before infection (day-1). On day 0, individual animals were inoculated intramuscularly (IM) into the right thigh of test animals with 1.5×10^5 CFU/mouse of Methicillin Resistant Staphylococcus aureus (MRSA, ATCC 33591) suspended in 100 μL of sterile PBS, pH 7.4. Vehicle and test substances were administered intravenously (IV) at a dose volume of 8 mL/Kg, 2 and 14 hours after thigh infection. Example 1 was dissolved in 5% dextrose/1 mM potassium phosphate, pH 5.0 and administered at doses of 2.5, 5, 10, 15, 25 and 50 mg/Kg. At 26 hours after inoculation, muscle of the right thigh of each test mouse was harvested. From an additional group with no treatment, muscle of the right thigh was harvested at 2 hours after inoculation for the basal CFU determination. The removed muscle tissues were then homogenized in 3-4 mL of PBS, pH 7.4 with a ceramic mortar. Homogenates of 0.1 mL were used for serial 10-fold dilutions and plated on Mueller Hinton broth in 1.5% Bacto agar for CFU determination."}, "[3]": {"system": "Staphylococcus aureus methicillin resistant ATCC 33591", "experiment": "Mouse bacteraemia model, SC dosing", "assay_type": "in vivo", "protocol": "Groups of 6 male CD-1 (Crl.) derived mice weighing 24±2 g were used. Mice were inoculated intraperitoneally (IP) with an LD90-100 of Staphylococcus aureus methicillin resistant ATCC 33591 (1.1×10^7 CFU/mouse) in 0.5 mL of BHI broth containing 5% mucin. Example 1 and vancomycin were dissolved in 15% HPbetaCD/4.4% glucose/0.5 mM KH2PO4, pH 5.0 and doses of 1, 3, 5, 10 and 20 mg/Kg were administered subcutaneously (SC) to test animals at 0, 2 and 24 hour(s) after bacteria challenge. The dosing volume was 5 mL/Kg. Mortality was recorded once daily for 7 days (FIG. 1). The ED50 for each compound was determined by nonlinear regression."}, "[4]": {"system": "Methicillin Resistant Staphylococcus aureus (MRSA, ATCC 33591)", "experiment": "Neutropaenic mouse thigh infection model", "assay_type": "in vivo", "protocol": "In vivo efficacy of compounds of the present invention in the treatment of bacterial tissue infections was evaluated using a neutropaenic mouse thigh model.\nGroups of 6 male ICR mice weighing 24±2 g were used. Test animals were immunosuppressed by 2 intraperitoneal injections of cyclophosphamide, the first at 150 mg/Kg 4 days before infection (day-4) and the second at 100 mg/Kg 1 day before infection (day-1). On day 0, individual animals were inoculated intramuscularly (IM) into the right thigh of test animals with 1.15×10^8 CFU/mouse of Methicillin Resistant Staphylococcus aureus (MRSA, ATCC 33591) suspended in 100 μL of sterile PBS, pH 7.4. Vehicle and test substances were administered intravenously (IV) at a dose volume of 6 mL/Kg, 2 and 14 hours after thigh infection. Example 1 and vancomycin were dissolved in 15% hydroxypropyl-β-cyclodextrin/4.4% glucose/1.5 mM potassium phosphate buffer, pH 7.0 and administered at doses of 5, 10, 20, 30 and 40 mg/Kg. At 26 hours after inoculation, muscle of the right thigh of each test mouse was harvested. From an additional group with no treatment, muscle of the right thigh was harvested at 2 hours after inoculation for the basal CFU determination. The removed muscle tissues were then homogenized in 3-4 mL of PBS, pH 7.4 with a ceramic mortar. Homogenates of 0.1 mL were used for serial 10-fold dilutions and plated on Mueller Hinton broth in 1.5% Bacto agar for CFU determination. […] Results (mean cfu/g) are graphically represented in FIG. 2."}, "Aqueous solubility": {"experiment": "Aqueous solubility", "assay_type": "physicochemical", "conditions": "for pH of saturated solution: aqueous saturated solution", "from_the_text": "Solubility as employed herein is used generically to refer to a distribution of a compound of formula (I) in a solvent (for example water, saline or an aqueous isotonic solution such as glucose) such that the formulation/composition resulting therefrom is substantially free of visible aggregates and for example is substantially transparent when viewed by the naked eye. Such a formulation would therefore include a whole range of formats which are suitable for infusion and/or injection such as solutions, suspensions, colloids and the like. […]"}, "[5]": {"experiment": "In vivo plasma half-life in mice", "conditions": "male, mouse, 29.76 mg/kg; CD-1 mice, IV dose of Example 1 (9.3 mL/Kg of 3.2 mg/mL solution); Compound 1 in plasma by LC-MS", "protocol": "The in vivo half-life of Compound 1 in mice was determined by measurement of its plasma concentrations at various time points following IV dosing. 18 male CD-1 mice aged 7-9 weeks were dosed IV with a 9.3 mL/Kg dose of a 3.2 mg/mL solution of Example 1 in 15% hydroxypropyl-β-cyclodextrin/4.4% glucose/1 mM potassium phosphate (pH=7.6). Plasma samples were obtained at 10, 20, 30, 60, 120 and 240 min post-dose, sampling from 3 animals at each time point. Concentrations of Compound 1 in plasma were determined by LC-MS quantification."}, "[6]": {"conditions": "aqueous, * = calculations made from two determinations"}}, "note": "Where a name gives a salt, the structure may show the parent alone."}
{"smiles": "CN[C@H](CC(C)C)C(=O)N[C@H]1C(=O)N[C@@H](CC(N)=O)C(=O)N[C@H]2C(=O)N[C@H]3C(=O)N[C@H](C(=O)N[C@H](C(=O)O)c4cc(O)cc(O)c4-c4cc3ccc4O)[C@H](O)c3ccc(c(Cl)c3)Oc3cc2cc(c3O[C@@H]2O[C@H](CO)[C@@H](O)[C@H](O)[C@H]2O[C@H]2C[C@](C)(N)[C@H](O)[C@H](C)O2)Oc2ccc(cc2Cl)[C@H]1O", "note": "[vancomycin, reference compound]", "values": [{"measurement": "number of deaths", "setting": "[1]; 1 mg/kg IV at 1 and 13 h after challenge", "result": 5}, {"measurement": "number of deaths", "setting": "[1]; 3 mg/kg IV at 1 and 13 h after challenge", "result": 3}, {"measurement": "number of deaths", "setting": "[1]; 5 mg/kg IV at 1 and 13 h after challenge", "result": 1}, {"measurement": "number of deaths", "setting": "[1]; 10 mg/kg IV at 1 and 13 h after challenge", "result": 0}, {"measurement": "survival of mice after 7 days", "setting": "[1]; 1, 3, 5 and 10 mg/kg", "result": "dose-dependent incease in survival"}, {"measurement": "bacterial counts in the thigh tissue", "setting": "[2]", "result": "dose dependent reduction"}, {"measurement": "antimicrobial effect against S. aureus (MRSA) in mice", "setting": "[3]; 3, 5, 10 and 20 mg/Kg×3, SC", "result": "significant antimicrobial effect"}, {"measurement": "ED50", "setting": "[3]; Staphylococcus aureus, ATCC33591, CD-1 mice, SC at 0, 2 and 24 h after challenge, mortality over 7 days, nonlinear regression, read-out: estimated ED50", "result": 3, "unit": "mg/kg"}, {"measurement": "antimicrobial effect", "setting": "[4]; IV at 5, 10, 20, 30 and 40 mg/Kg×2, 2 and 14 h after thigh infection, harvest at 26 h", "result": "significant antimicrobial effect"}, {"measurement": "reductions of CFU/g", "setting": "[4]; at 30 mg/kg and above, IV ×2, thigh muscle at 26 h", "result": "> 100", "unit": "fold"}]}
{"smiles": "CC[C@H](C)[C@@H]1NC(=O)[C@@H]2NC(=O)[C@H](CC(C)C)NC(=O)[C@H](NC(=O)[C@@H]3CSC[C@@H](N)C(=O)N[C@@H](CO)C(=O)NCC(=O)N[C@@H](Cc4c[nH]c5ccccc45)C(=O)N[C@@H](C(C)C)C(=O)N3)[C@H](C)SC[C@H](NC(=O)[C@H](CCC(=O)O)NC1=O)C(=O)NCC(=O)N[C@H]1C(=O)N[C@@H](CC(C)C)C(=O)N[C@@H](C(C)C)C(=O)N[C@@H](CS[C@H]2C)C(=O)N[C@@H](C)C(=O)N[C@H](C(=O)NCc2cc(Cl)cc(Cl)c2)CS[C@H]1C", "note": "[ethanolamine salt]", "values": [{"measurement": "pH of saturated solution", "setting": "Aqueous solubility", "result": 8.74}, {"measurement": "Solubility", "setting": "Aqueous solubility; [6]", "result": "10.5* mg/mL"}, {"measurement": "Solubility", "setting": "Aqueous solubility; salts of compound 1, listed as ethanolamine salt of compound 1", "result": "more than 10 mg/mL"}]}
{"smiles": "CC[C@H](C)[C@@H]1NC(=O)[C@@H]2NC(=O)[C@H](CC(C)C)NC(=O)[C@H](NC(=O)[C@@H]3CSC[C@@H](N)C(=O)N[C@@H](CO)C(=O)NCC(=O)N[C@@H](Cc4c[nH]c5ccccc45)C(=O)N[C@@H](C(C)C)C(=O)N3)[C@H](C)SC[C@H](NC(=O)[C@H](CCC(=O)O)NC1=O)C(=O)NCC(=O)N[C@H]1C(=O)N[C@@H](CC(C)C)C(=O)N[C@@H](C(C)C)C(=O)N[C@@H](CS[C@H]2C)C(=O)N[C@@H](C)C(=O)N[C@H](C(=O)NCc2cc(Cl)cc(Cl)c2)CS[C@H]1C", "note": "[tromethamine salt]", "values": [{"measurement": "pH of saturated solution", "setting": "Aqueous solubility", "result": 8.53}, {"measurement": "Solubility", "setting": "Aqueous solubility; [6]", "result": 2.38, "unit": "mg/mL"}]}
{"smiles": "CC[C@H](C)[C@@H]1NC(=O)[C@@H]2NC(=O)[C@H](CC(C)C)NC(=O)[C@H](NC(=O)[C@@H]3CSC[C@@H](N)C(=O)N[C@@H](CO)C(=O)NCC(=O)N[C@@H](Cc4c[nH]c5ccccc45)C(=O)N[C@@H](C(C)C)C(=O)N3)[C@H](C)SC[C@H](NC(=O)[C@H](CCC(=O)O)NC1=O)C(=O)NCC(=O)N[C@H]1C(=O)N[C@@H](CC(C)C)C(=O)N[C@@H](C(C)C)C(=O)N[C@@H](CS[C@H]2C)C(=O)N[C@@H](C)C(=O)N[C@H](C(=O)NCc2cc(Cl)cc(Cl)c2)CS[C@H]1C", "note": "[N-ethyl-D-glucamine salt]", "values": [{"measurement": "pH of saturated solution", "setting": "Aqueous solubility", "result": 8.43}, {"measurement": "Solubility", "setting": "Aqueous solubility; [6]", "result": "11.16* mg/mL"}, {"measurement": "Solubility", "setting": "Aqueous solubility; salts of compound 1, listed as N-ethyl glucamine salt of compound 1", "result": "more than 10 mg/mL"}]}
{"smiles": "CCC(C)[C@@H]1NC(=O)[C@@H]2NC(=O)[C@H](CC(C)C)NC(=O)[C@H](NC(=O)[C@H]3CSC[C@H](N)C(=O)N[C@@H](CO)C(=O)NCC(=O)N[C@@H](Cc4c[nH]c5ccccc45)C(=O)N[C@@H](C(C)C)C(=O)N3)[C@H](C)SC[C@H](NC(=O)[C@H](CCC(=O)O)NC1=O)C(=O)NCC(=O)N[C@@H]1C(=O)N[C@@H](CC(C)C)C(=O)N[C@@H](C(C)C)C(=O)N[C@@H](CS[C@H]2C)C(=O)N[C@@H](C)C(=O)N[C@H](C(=O)NCc2cc(Cl)cc(Cl)c2)CS[C@H]1C", "note": "(stereo partly drawn) [Compound 1, Deoxyactagardine B (3,5-dichlorobenzylamine) monocarboxamide]", "values": [{"measurement": "half-life", "setting": "[5]", "result": "~2", "unit": "h"}]}
{"smiles": "CC[C@H](C)[C@@H]1NC(=O)[C@@H]2NC(=O)[C@H](CC(C)C)NC(=O)[C@H](NC(=O)[C@@H]3CSC[C@@H](N)C(=O)N[C@@H](CO)C(=O)NCC(=O)N[C@@H](Cc4c[nH]c5ccccc45)C(=O)N[C@@H](C(C)C)C(=O)N3)[C@H](C)SC[C@H](NC(=O)[C@H](CCC(=O)O)NC1=O)C(=O)NCC(=O)N[C@H]1C(=O)N[C@@H](CC(C)C)C(=O)N[C@@H](C(C)C)C(=O)N[C@@H](CS[C@H]2C)C(=O)N[C@@H](C)C(=O)N[C@H](C(=O)NCc2cc(Cl)cc(Cl)c2)CS[C@H]1C", "note": "[triethanolamine salt]", "values": [{"measurement": "pH of saturated solution", "setting": "Aqueous solubility", "result": 8.43}, {"measurement": "Solubility", "setting": "Aqueous solubility; [6]", "result": 1.04, "unit": "mg/mL"}]}
{"smiles": "CC[C@H](C)[C@@H]1NC(=O)[C@@H]2NC(=O)[C@H](CC(C)C)NC(=O)[C@H](NC(=O)[C@@H]3CSC[C@@H](N)C(=O)N[C@@H](CO)C(=O)NCC(=O)N[C@@H](Cc4c[nH]c5ccccc45)C(=O)N[C@@H](C(C)C)C(=O)N3)[C@H](C)SC[C@H](NC(=O)[C@H](CCC(=O)O)NC1=O)C(=O)NCC(=O)N[C@H]1C(=O)N[C@@H](CC(C)C)C(=O)N[C@@H](C(C)C)C(=O)N[C@@H](CS[C@H]2C)C(=O)N[C@@H](C)C(=O)N[C@H](C(=O)NCc2cc(Cl)cc(Cl)c2)CS[C@H]1C", "note": "[diethanolamine salt]", "values": [{"measurement": "pH of saturated solution", "setting": "Aqueous solubility", "result": 8.78}, {"measurement": "Solubility", "setting": "Aqueous solubility; [6]", "result": "6.94* mg/mL"}, {"measurement": "Solubility", "setting": "Aqueous solubility; salts of compound 1, listed as diethanolamine salt of compound 1", "result": "more than 5 mg/mL"}]}
